Assay results from PMC4081560 (PLoS ONE, 2014).

Experiments:
[1] = system: K/2785 virus (A/Korea/2785/2009); type: cell-based, 2009 pandemic H1N1 oseltamivir-resistant variant
[2] = biological target: K/2785 virus (A/Korea/2785/2009) neuraminidase (NA H275Y) (Influenza A virus, UniProt C5MQP8, H275Y); type: biochemical, 2009 pandemic H1N1 oseltamivir-resistant variant

| SMILES | EC50 [1] [µM] | IC50 [2] [µM] | higher concentration needed compared with K/09 virus [2] |
| --- | --- | --- | --- |
| NC(=O)c1nc(F)cnc1O [Favipiravir, 6-fluoro-3-hydroxy-2-pyrazinecarboxamide] | 10.8 |  |  |
| CCC(CC)[C@H](NC(C)=O)[C@@H]1[C@H](O)[C@@H](C(=O)O)C[C@H]1N=C(N)N [Peramivir] |  | 0.0298 | more than 20 fold |
